According to patent US12180187B2, “1-phenyl-5-azinylpyrazolyl-3-oxyalkyl acids and their use for controlling unwanted plant growth” (BAYER AKTIENGESELLSCHAFT, priority 2019, dated 2024):

How the values were obtained:
VERPE [1] = test: Post-emergence action against VERPE, 1.28 kg/ha; format: in vivo, Veronica persica; conditions: dosage 1280 g/ha, visual rating about 3 weeks after treatment vs untreated controls (100% = plants died)
Summary of the method: (§1)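 Spray at one-leaf stage with WP/EC + 0.5% additive, 600 L water/ha. Greenhouse, optimum conditions, ~3 wk. Visual % control vs untreated; 0 = no effect, 100 = dead.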

LOLRI [2] = test: Pre-emergence action against LOLRI, 1280 g/ha; format: in vivo, Lolium rigidum; conditions: visual scoring after about 3 weeks vs untreated controls, 100% = plants have died, 0% = like control plants
Summary of the method: (§2)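 In greenhouse pots of sandy loam, sown weed seeds were covered with soil and treated pre-emergence with the compound in water (600 L/ha, 0.5% additive). Efficacy was assessed visually as percent of untreated control after about 3 weeks.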

STEME [3] = test: Post-emergence action against STEME, 1.28 kg/ha; format: in vivo, Stellaria media; conditions: dosage 1280 g/ha, visual rating about 3 weeks after treatment vs untreated controls (100% = plants died)
Summary of the method: as §1

ALOMY [4] = test: Pre-emergence action against ALOMY, 1280 g/ha; format: in vivo, Alopecurus myosuroides; conditions: visual scoring after about 3 weeks vs untreated controls, 100% = plants have died, 0% = like control plants
Summary of the method: as §2

MATIN [5] = test: Pre-emergence action against MATIN, 1280 g/ha; format: in vivo, Tripleurospermum inodorum (Matricaria inodora); conditions: scored visually after about 3 weeks vs untreated controls (100% = plants have died)
Summary of the method: as §2

MATIN [6] = test: Post-emergence action against MATIN, 1.28 kg/ha; format: in vivo, Tripleurospermum inodorum (Matricaria inodora); conditions: dosage 1280 g/ha, visual rating about 3 weeks after treatment vs untreated controls (100% = plants died)
Summary of the method: as §1

STEME [7] = test: Pre-emergence action against STEME, 1280 g/ha; format: in vivo, Stellaria media; conditions: scored visually after about 3 weeks vs untreated controls (100% = plants have died)
Summary of the method: as §2

ECHCG [8] = test: Post-emergence action against ECHCG, 1.28 kg/ha; format: in vivo, Echinochloa crus-galli; conditions: dosage 1280 g/ha, visual rating about 3 weeks after treatment vs untreated controls
Summary of the method: as §1

ALOMY [9] = test: Post-emergence action against ALOMY, 1.28 kg/ha; format: in vivo, Alopecurus myosuroides; conditions: dosage 1280 g/ha, visual rating about 3 weeks after treatment vs untreated controls
Summary of the method: as §1

LOLRI [10] = test: Post-emergence action against LOLRI, 1.28 kg/ha; format: in vivo, Lolium rigidum; conditions: dosage 1280 g/ha, visual rating about 3 weeks after treatment vs untreated controls
Summary of the method: as §1

DIGSA [11] = test: Post-emergence action against DIGSA, 1.28 kg/ha; format: in vivo, Digitaria sanguinalis; conditions: dosage 1280 g/ha, visual rating about 3 weeks after treatment vs untreated controls
Summary of the method: as §1

SETVI [12] = test: Pre-emergence action against SETVI, 1280 g/ha; format: in vivo, Setaria viridis; conditions: visual scoring after about 3 weeks vs untreated controls, 100% = plants have died, 0% = like control plants
Summary of the method: as §2

AMARE [13] = test: Post-emergence action against AMARE, 1.28 kg/ha; format: in vivo, Amaranthus retroflexus; conditions: dosage 1280 g/ha, visual rating about 3 weeks after treatment vs untreated controls (100% = plants died)
Summary of the method: as §1

POAAN [14] = test: Post-emergence action against POAAN, 1.28 kg/ha; format: in vivo, Poa annua; conditions: dosage 1280 g/ha, visual rating about 3 weeks after treatment vs untreated controls
Summary of the method: as §1

SETVI [15] = test: Post-emergence action against SETVI, 1.28 kg/ha; format: in vivo, Setaria viridis; conditions: dosage 1280 g/ha, visual rating about 3 weeks after treatment vs untreated controls
Summary of the method: as §1

POAAN [16] = test: Pre-emergence action against POAAN, 1280 g/ha; format: in vivo, Poa annua; conditions: visual scoring after about 3 weeks vs untreated controls, 100% = plants have died, 0% = like control plants
Summary of the method: as §2

VERPE [17] = test: Pre-emergence action against VERPE, 1280 g/ha; format: in vivo, Veronica persica; conditions: scored visually after about 3 weeks vs untreated controls (100% = plants have died)
Summary of the method: as §2

ABUTH = test: Post-emergence action against ABUTH, 1.28 kg/ha; format: in vivo, Abutilon theophrasti; conditions: dosage 1280 g/ha, visual rating about 3 weeks after treatment vs untreated controls (100% = plants died)
Summary of the method: as §1

DIGSA [18] = test: Pre-emergence action against DIGSA, 1280 g/ha; format: in vivo, Digitaria sanguinalis; conditions: visual scoring after about 3 weeks vs untreated controls, 100% = plants have died, 0% = like control plants
Summary of the method: as §2

KCHSC [19] = test: Post-emergence action against KCHSC, 1.28 kg/ha; format: in vivo, Bassia scoparia; conditions: dosage 1280 g/ha, visual rating about 3 weeks after treatment vs untreated controls (100% = plants died)
Summary of the method: as §1

ECHCG [20] = test: Pre-emergence action against ECHCG, 1280 g/ha; format: in vivo, Echinochloa crus-galli; conditions: visual scoring after about 3 weeks vs untreated controls, 100% = plants have died, 0% = like control plants
Summary of the method: as §2

AMARE [21] = test: Pre-emergence action against AMARE, 1280 g/ha; format: in vivo, Amaranthus retroflexus; conditions: scored visually after about 3 weeks vs untreated controls (100% = plants have died)
Summary of the method: as §2

KCHSC [22] = test: Pre-emergence action against KCHSC, 1280 g/ha; format: in vivo, Bassia scoparia; conditions: scored visually after about 3 weeks vs untreated controls (100% = plants have died)
Excerpt: 1. Pre-Emergence Herbicidal Effect and Crop Plant Compatibility a) Seeds of mono- and dicotyledonous weed plants are placed in plastic pots in sandy loam soil (doubly sown with one species each of mono- or dicotyledonous weed plants per pot) and covered with soil. The compounds of the invention, formulated in the form of wettable powders (WP) or as emulsion concentrates (EC), are then applied onto the surface of the covering soil as aqueous suspension or emulsion with addition of 0.5% additive at a water application rate equivalent to 600 litres per hectare. After the treatment, the pots are placed in a greenhouse and kept under good growth conditions for the trial plants. After about 3 weeks, the effect of the preparations is scored visually in comparison with untreated controls as percentages. For example, 100% activity=the plants have died, 0% activity=like control plants. 1. Pre-Emergence Effectiveness Tables 1 to 12 below show the effects of selected compounds of the general formula (I) according to Tables 1 and 2 on various harmful plants and at an application rate corresponding to 1280 g/ha, which were obtained by the experimental procedure mentioned above.

| Structure (SMILES) | Post-emergence action against VERPE (VERPE [1]) [%] | Pre-emergence action against LOLRI (LOLRI [2]) [%] | Post-emergence action against STEME (STEME [3]) [%] | Pre-emergence action against MATIN (MATIN [5]) [%] | Post-emergence action against MATIN (MATIN [6]) [%] | Pre-emergence action against STEME (STEME [7]) [%] | Post-emergence action against ECHCG (ECHCG [8]) [%] | Post-emergence action against ALOMY (ALOMY [9]) [%] | Post-emergence action against LOLRI (LOLRI [10]) [%] | Post-emergence action against DIGSA (DIGSA [11]) [%] | Pre-emergence action against SETVI (SETVI [12]) [%] | Post-emergence action against AMARE (AMARE [13]) [%] | Post-emergence action against POAAN (POAAN [14]) [%] | Pre-emergence action against POAAN (POAAN [16]) [%] | Pre-emergence action against VERPE (VERPE [17]) [%] | Pre-emergence action against DIGSA (DIGSA [18]) [%] | Post-emergence action against KCHSC (KCHSC [19]) [%] | Pre-emergence action against ECHCG (ECHCG [20]) [%] | Pre-emergence action against AMARE (AMARE [21]) [%] | Pre-emergence action against KCHSC (KCHSC [22]) [%] | also measured |
| --- | --- | --- | --- | --- | --- | --- | --- | --- | --- | --- | --- | --- | --- | --- | --- | --- | --- | --- | --- | --- | --- |
| CONC(=O)COc1nn(-c2ccc(F)cc2F)c(-c2ccc(F)nc2)c1Br [Example X-024] | 100 | 100 | 100 | 100 | 90 | 100 | 100 | 100 | 100 | 100 | 100 | 100 | 100 | 100 | 100 | 100 | 90 | 100 | 100 | 100 | Pre-emergence action against ALOMY (ALOMY [4]): 100%; Post-emergence action against SETVI (SETVI [15]): 90%; Post-emergence action against ABUTH (ABUTH): 100% |
| CCOC(=O)COc1nn(-c2ccc(F)cc2)c(-c2ccc(F)nc2)c1Br [VII-065] | 90 | 100 | 100 | 90 | 100 | 100 | 100 | 100 | 90 | 100 | 100 | 90 | 100 | 100 | 100 | 100 | 100 | 100 | 100 | 100 | Pre-emergence action against ALOMY (ALOMY [4]): 100%; Post-emergence action against SETVI (SETVI [15]): 90%; Post-emergence action against ABUTH (ABUTH): 90% |
| CCOC(=O)COc1nn(-c2ccc(F)cc2)c(-c2ccc(F)nc2)c1C(F)(F)F [VII-059] | 90 | 100 | 100 | 90 | 100 | 100 | 100 | 100 | 100 | 100 | 100 | 100 | 100 | 100 | 100 | 100 | 100 | 100 | 100 | 100 | Pre-emergence action against ALOMY (ALOMY [4]): 100% |
| O=C(O)C1CCCN1C(=O)COc1nn(-c2ccccc2F)c(-c2ccc(F)nc2)c1Br (centres unmarked) [Example X-009] | 100 | 100 | 100 | 100 | 90 | 100 | 100 | 100 | – | 90 | 100 | 100 | 100 | 100 | 100 | 90 | 90 | 100 | 100 | 90 | Pre-emergence action against ALOMY (ALOMY [4]): 100%; Post-emergence action against SETVI (SETVI [15]): 100%; Post-emergence action against ABUTH (ABUTH): 100% |
| O=C(O)COc1nn(-c2ccc(F)cc2)c(-c2ccc(F)nc2)c1Br [VII-095] | 90 | 100 | 90 | 90 | 100 | 100 | 100 | 100 | 100 | 100 | 100 | 90 | 100 | 100 | 100 | 100 | 100 | 100 | 100 | 100 | Pre-emergence action against ALOMY (ALOMY [4]): 100%; Post-emergence action against SETVI (SETVI [15]): 100% |
| O=C(O)COc1nn(-c2ccc(F)cc2F)c(-c2ccc(F)nc2)c1Br [VII-100] | 100 | 100 | 100 | 100 | 90 | 100 | 90 | 100 | 100 | 90 | 90 | 100 | 100 | 100 | 100 | 90 | 90 | – | 100 | 100 | Post-emergence action against SETVI (SETVI [15]): 100%; Post-emergence action against ABUTH (ABUTH): 90% |
| COC(=O)[C@@H](C)Oc1nn(-c2ccccc2F)c(-c2cncnc2)c1[N+](=O)[O-] [VI-006] | 90 | 100 | 100 | 100 | 100 | 90 | – | – | 100 | 90 | 100 | – | 100 | 100 | 100 | 100 | 90 | 100 | 90 | 100 | – |
